Source: PubChem BioAssay AID248 (DTP/NCI, 2004)
Where “and” joins values, the source holds several entries; their conditions need not be identical. Equal entries are not always repeated. Toxic doses and inconclusive results are not listed. Rule as the data show it: active = T/C of 150% or more; inactive = T/C below 125%.

Test system: L1210 leukemia ip in BDF1 mice, survival T/C
Experiment: NCI In Vivo Anticancer Drug Screen. Data for tumor model L1210 Leukemia (intraperitoneal) in B6D2F1 (BDF1) mice
Settings: higher = longer survival
Summary of the method: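 Antitumor effect is assessed in tumor-bearing animals. Survival in the compound arm is compared with a vehicle-dosed control arm and expressed as their quotient.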

[1] = endpoint: mean survival time, dose: 25.0 mg/kg/injection, schedule: Q01DX009 (ip), vehicle: saline with Tween-80
[2] = endpoint: mean survival time, dose: 50.0 mg/kg/injection, schedule: Q01DX009 (ip), vehicle: saline with Tween-80
[3] = endpoint: mean survival time, dose: 100.0 mg/kg/injection, schedule: Q04DX003 (ip), vehicle: saline
[4] = endpoint: mean survival time, dose: 12.5 mg/kg/injection, schedule: Q01DX009 (ip), vehicle: saline
[5] = endpoint: mean survival time, dose: 25.0 mg/kg/injection, schedule: Q01DX009 (ip), vehicle: saline
[6] = endpoint: mean survival time, dose: 50.0 mg/kg/injection, schedule: Q01DX009 (ip), vehicle: saline
[7] = endpoint: mean survival time, dose: 200.0 mg/kg/injection, schedule: Q04DX003 (ip), vehicle: saline
[8] = endpoint: mean survival time, dose: 100.0 mg/kg/injection, schedule: Q01DX009 (ip), vehicle: saline
[9] = endpoint: mean survival time, dose: 100.0 mg/kg/injection, schedule: Q04DX003 (ip), vehicle: saline with Tween-80
[10] = endpoint: mean survival time, dose: 200.0 mg/kg/injection, schedule: Q04DX003 (ip), vehicle: saline with Tween-80
[11] = endpoint: mean survival time, dose: 100.0 mg/kg/injection, schedule: Q01DX001 (ip), vehicle: saline
[12] = endpoint: mean survival time, dose: 200.0 mg/kg/injection, schedule: Q01DX001 (ip), vehicle: saline
[13] = endpoint: mean survival time, dose: 400.0 mg/kg/injection, schedule: Q01DX001 (ip), vehicle: saline

Measured: T/C

NC(N)=N/N=C/C(Cl)Cl
inactive: endpoint: mean survival time, dose: 15.0 mg/kg/injection, schedule: Q01DX Z (ip), vehicle: carboxymethylcellulose (CMC) 103 % of control | [1] 100 % of control | endpoint: mean survival time, dose: 30.0 mg/kg/injection, schedule: Q01DX Z (ip), vehicle: carboxymethylcellulose (CMC) 97 % of control | endpoint: mean survival time, dose: 30.0 mg/kg/injection, schedule: Q01DX Z (oral), vehicle: carboxymethylcellulose (CMC) 92 % of control | endpoint: mean survival time, dose: 37.0 mg/kg/injection, schedule: Q01DX Z (oral), vehicle: carboxymethylcellulose (CMC) 113 % of control | [2] 103 % of control | endpoint: mean survival time, dose: 50.0 mg/kg/injection, schedule: Q04DX003 (ip), vehicle: saline 98 % of control | endpoint: mean survival time, dose: 60.0 mg/kg/injection, schedule: Q01DX Z (ip), vehicle: carboxymethylcellulose (CMC) 111 % of control | endpoint: mean survival time, dose: 60.0 mg/kg/injection, schedule: Q01DX Z (oral), vehicle: carboxymethylcellulose (CMC) 121 % of control | endpoint: mean survival time, dose: 75.0 mg/kg/injection, schedule: Q01DX001 (oral), vehicle: carboxymethylcellulose (CMC) 113 % of control | endpoint: mean survival time, dose: 75.0 mg/kg/injection, schedule: Q01DX Z (oral), vehicle: carboxymethylcellulose (CMC) 107 % of control | endpoint: mean survival time, dose: 100.0 mg/kg/injection, schedule: Q01DX009 (ip), vehicle: saline with Tween-80 121 % of control | [3] 102 % of control | endpoint: mean survival time, dose: 150.0 mg/kg/injection, schedule: Q01DX001 (oral), vehicle: carboxymethylcellulose (CMC) 104 % of control | endpoint: mean survival time, dose: 300.0 mg/kg/injection, schedule: Q01DX001 (oral), vehicle: carboxymethylcellulose (CMC) 104 % of control | endpoint: mean survival time, dose: 300.0 mg/kg/injection, schedule: Q01DX Z (oral), vehicle: carboxymethylcellulose (CMC) 113 % of control | endpoint: mean survival time, dose: 600.0 mg/kg/injection, schedule: Q01DX001 (oral), vehicle: carboxymethylcellulose (CMC) 117 % of control

O=NN(Cc1ccccc1)P(=O)(O)Oc1ccccc1
inactive: endpoint: mean survival time, dose: 4.5 mg/kg/injection, schedule: Q01DX001 (ip), vehicle: saline 100 % of control | endpoint: mean survival time, dose: 9.0 mg/kg/injection, schedule: Q01DX001 (ip), vehicle: saline 97 % of control | endpoint: mean survival time, dose: 13.0 mg/kg/injection, schedule: Q01DX001 (ip), vehicle: saline 100 % of control | endpoint: mean survival time, dose: 26.0 mg/kg/injection, schedule: Q01DX001 (ip), vehicle: saline 97 % of control | endpoint: mean survival time, dose: 40.0 mg/kg/injection, schedule: Q01DX001 (ip), vehicle: saline 114 % of control | endpoint: mean survival time, dose: 60.0 mg/kg/injection, schedule: Q01DX001 (ip), vehicle: saline 101 % of control | endpoint: mean survival time, dose: 93.0 mg/kg/injection, schedule: Q01DX001 (ip), vehicle: saline 97 % of control | endpoint: mean survival time, dose: 187.0 mg/kg/injection, schedule: Q01DX001 (ip), vehicle: saline 94 % of control | endpoint: mean survival time, dose: 250.0 mg/kg/injection, schedule: Q01DX001 (ip), vehicle: saline 95 % of control | endpoint: mean survival time, dose: 375.0 mg/kg/injection, schedule: Q01DX001 (ip), vehicle: saline 92 % of control | endpoint: mean survival time, dose: 500.0 mg/kg/injection, schedule: Q01DX001 (ip), vehicle: saline 100 % of control | endpoint: mean survival time, dose: 750.0 mg/kg/injection, schedule: Q01DX001 (ip), vehicle: saline 95 % of control

C[C@H]1C(=O)O[C@@H]2CCN3CC=C(COC(=O)[C@](C)(O)[C@@]1(C)O)[C@H]23
inactive: endpoint: mean survival time, dose: 3.13 mg/kg/injection, schedule: Q01DX010 (ip), vehicle: saline 93 % of control and 94 % of control | endpoint: mean survival time, dose: 6.25 mg/kg/injection, schedule: Q01DX009 (ip), vehicle: saline 95 % of control and 104 % of control | endpoint: mean survival time, dose: 6.25 mg/kg/injection, schedule: Q01DX010 (ip), vehicle: saline 96 % of control and 87 % of control | [4] 92 % of control and 104 % of control | endpoint: mean survival time, dose: 12.5 mg/kg/injection, schedule: Q01DX010 (ip), vehicle: saline 92 % of control and 93 % of control | endpoint: mean survival time, dose: 17.6 mg/kg/injection, schedule: Q01DX Z (ip), vehicle: methylcellulose (MC) 98 % of control | [5] 103 % of control and 104 % of control | endpoint: mean survival time, dose: 25.0 mg/kg/injection, schedule: Q01DX010 (ip), vehicle: saline 92 % of control and 94 % of control | endpoint: mean survival time, dose: 26.8 mg/kg/injection, schedule: Q01DX Z (ip), vehicle: methylcellulose (MC) 101 % of control | endpoint: mean survival time, dose: 40.0 mg/kg/injection, schedule: Q01DX Z (ip), vehicle: methylcellulose (MC) 101 % of control | [6] 105 % of control and 121 % of control | endpoint: mean survival time, dose: 60.0 mg/kg/injection, schedule: Q01DX Z (ip), vehicle: methylcellulose (MC) 95 % of control | endpoint: mean survival time, dose: 90.0 mg/kg/injection, schedule: Q01DX Z (ip), vehicle: methylcellulose (MC) 106 % of control | endpoint: mean survival time, dose: 135.0 mg/kg/injection, schedule: Q01DX Z (ip), vehicle: methylcellulose (MC) 111 % of control and 113 % of control | endpoint: mean survival time, dose: 193.0 mg/kg/injection, schedule: Q01DX Z (ip), vehicle: methylcellulose (MC) 108 % of control | endpoint: median survival time, dose: 6.25 mg/kg/injection, schedule: Q01DX009 (ip), vehicle: saline 95 % of control and 100 % of control | endpoint: median survival time, dose: 12.5 mg/kg/injection, schedule: Q01DX009 (ip), vehicle: saline 100 % of control | endpoint: median survival time, dose: 25.0 mg/kg/injection, schedule: Q01DX009 (ip), vehicle: saline 100 % of control | endpoint: median survival time, dose: 50.0 mg/kg/injection, schedule: Q01DX009 (ip), vehicle: saline 100 % of control and 110 % of control

NC(N)=N/N=C/c1cccnc1
inactive: endpoint: mean survival time, dose: 15.0 mg/kg/injection, schedule: Q01DX Z (oral), vehicle: saline 97 % of control | endpoint: mean survival time, dose: 30.0 mg/kg/injection, schedule: Q01DX Z (oral), vehicle: saline 97 % of control | endpoint: mean survival time, dose: 60.0 mg/kg/injection, schedule: Q01DX Z (oral), vehicle: saline 97 % of control and 100 % of control | endpoint: mean survival time, dose: 120.0 mg/kg/injection, schedule: Q01DX Z (oral), vehicle: saline 96 % of control and 107 % of control | endpoint: mean survival time, dose: 240.0 mg/kg/injection, schedule: Q01DX Z (oral), vehicle: saline 94 % of control | endpoint: mean survival time, dose: 480.0 mg/kg/injection, schedule: Q01DX Z (oral), vehicle: saline 89 % of control

CC1=CCS(=O)(=O)C1
inactive: [3] 103 % of control | [7] 101 % of control

CC(=O)Nc1onc(C)c1[N+](=O)[O-]
inactive: [8] 101 % of control | endpoint: mean survival time, dose: 100.0 mg/kg/injection, schedule: Q04DX003 (ip), vehicle: other 91 % of control | endpoint: mean survival time, dose: 200.0 mg/kg/injection, schedule: Q01DX009 (ip), vehicle: saline 98 % of control and 91 % of control | endpoint: mean survival time, dose: 200.0 mg/kg/injection, schedule: Q04DX003 (ip), vehicle: other 92 % of control | endpoint: mean survival time, dose: 400.0 mg/kg/injection, schedule: Q01DX009 (ip), vehicle: saline 94 % of control and 86 % of control | endpoint: mean survival time, dose: 400.0 mg/kg/injection, schedule: Q04DX003 (ip), vehicle: other 94 % of control

FC(F)(F)C(F)(F)C(F)(F)c1nc2nc(Cl)c(Cl)nc2[nH]1
inactive: [1] 111 % of control | [2] 96 % of control and 100 % of control | [9] 91 % of control | [10] 93 % of control

CN(N)/C(N)=N/N
inactive: [3] 97 % of control | [7] 102 % of control | endpoint: mean survival time, dose: 400.0 mg/kg/injection, schedule: Q04DX003 (ip), vehicle: saline 97 % of control

Clc1ccc2n[nH]c(Cl)c2c1
inactive: [4] 95 % of control | [5] 101 % of control | [6] 98 % of control | [11] 92 % of control | [8] 96 % of control | [12] 92 % of control | [13] 102 % of control

O=C(N/N=C/c1cc(Cl)ccc1O)c1cccc2ccccc12
inactive: [11] 94 % of control | [12] 92 % of control | [13] 86 % of control

COC(=O)c1cc(C)cc(OC(=S)N(C)C)c1C
inactive: endpoint: mean survival time, dose: 100.0 mg/kg/injection, schedule: Q01DX001 (ip), vehicle: carboxymethylcellulose (CMC) 96 % of control | endpoint: mean survival time, dose: 100.0 mg/kg/injection, schedule: Q01DX009 (ip), vehicle: carboxymethylcellulose (CMC) 103 % of control | endpoint: mean survival time, dose: 200.0 mg/kg/injection, schedule: Q01DX001 (ip), vehicle: carboxymethylcellulose (CMC) 93 % of control | endpoint: mean survival time, dose: 200.0 mg/kg/injection, schedule: Q01DX009 (ip), vehicle: carboxymethylcellulose (CMC) 98 % of control | endpoint: mean survival time, dose: 400.0 mg/kg/injection, schedule: Q01DX001 (ip), vehicle: carboxymethylcellulose (CMC) 96 % of control | endpoint: mean survival time, dose: 400.0 mg/kg/injection, schedule: Q01DX009 (ip), vehicle: carboxymethylcellulose (CMC) 93 % of control | endpoint: mean survival time, dose: 800.0 mg/kg/injection, schedule: Q01DX009 (ip), vehicle: carboxymethylcellulose (CMC) 103 % of control

O=C(O)/C=C\C(=O)Nc1ccc(F)cc1
inactive: [9] 98 % of control | [10] 101 % of control | endpoint: mean survival time, dose: 400.0 mg/kg/injection, schedule: Q04DX003 (ip), vehicle: saline with Tween-80 101 % of control
